Experimental data published in patent publication US20120128770A1, “TREATMENT OF INSULIN RESISTANCE AND OBESITY BY STIMULATING GLP-1 RELEASE” (Kobenhavns Universitet, priority 2009, published 2012).

How the values were obtained:
tGLP-1 release = test: Clinical experiment: duodenal bolus in healthy male volunteers, plasma tGLP-1 release; format: in vivo, human; conditions: for plasma tGLP-1 levels during the first 25 minutes: duodenal bolus, compared to vehicle
Experimental: FIG. 4. Stimulation of tGLP-1 release by 2OG in the intestinal lumen. Eight healthy male volunteers were given enteral feeding by duodenal tube. Each volunteer was given three different liquid meals (two grams of 2OG(▴), 1.54 grams of oleic (∘) acid or vehicle (⋄)) on three different days. The vehicle consisted of 50 ml glycerol plus 5 ml ethanol. Data are mean values±SEM and were analysed by repeated measurements ANOVA.
8 healthy male volunteers (20-30 years, BMI 20-25) that had fasted 10 hours, were given enteral feeding by duodenal tube. The liquid meals were prepared 5 min before use. Each volunteer was given three different liquid meals (clear solution, bolus 55 ml) on three different days (A-C).
Day A: 2OG (2 g) in 50 ml glycerol+5 ml ethanol Day B: oleic acid (1.54 g) in 50 ml glycerol+5 ml ethanol Day C: 50 ml glycerol+5 ml ethanol Blood Samples were collected at the following points (min): −15, −10, 0, 10, 20, 30, 40, 50, 60, 75, 90, 120, 150, 180, 240.
In serum was measured: insulin and C-peptide
In plasma was measured: glucose, tGLP-1, Cholecystokinin (CCK).
The methods for these assays have been described previously (ref 18).

human GPR119 receptor [1] = biological target: T1, human GPR119 receptor (Homo sapiens, UniProt Q8TDV5); test: Ligand-induced GPR119 activation, cAMP formation (HTRF) in CHO-K1 cells; format: cell-based; parameters: expressed in transfected cells; conditions: for cAMP formation / GPR119 activation in words: CHO-K1 cells transiently expressing GPR119, FIG. 1; for EC50: CHO-K1 cells, cAMP formation
T1 sequence (Q8TDV5 1-335): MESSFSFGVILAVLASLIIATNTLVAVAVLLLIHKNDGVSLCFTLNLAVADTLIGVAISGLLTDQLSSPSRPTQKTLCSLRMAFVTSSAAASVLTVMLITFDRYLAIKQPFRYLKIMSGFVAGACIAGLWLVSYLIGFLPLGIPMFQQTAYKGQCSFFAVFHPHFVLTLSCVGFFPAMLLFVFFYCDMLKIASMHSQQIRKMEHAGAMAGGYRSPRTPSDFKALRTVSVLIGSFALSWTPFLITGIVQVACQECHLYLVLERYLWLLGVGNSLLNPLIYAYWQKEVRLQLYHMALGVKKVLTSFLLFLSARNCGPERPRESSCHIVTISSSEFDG
Experimental: FIG. 1. Ligand-induced GPR119 activation in CHO-K1 cells. Five different ligands were tested. Oleoylethanolamide, H-1: 2-oleoylglycerol, H-2: 1-oleoyleglycerol, H-4: oleic acid, and H-5: 2-palmitoylglycerol. cAMP was measured by a HTRF kit from CisBio International. Three experiments (each in duplicate) were performed using oleoylethanolamide as positive control in each experiment. All dose-response curves were normalized to the efficacy of OEA in each experiment, and the data are shown as ligand-induced activation above basal receptor activity.
GPR119 receptor signalling experiments were carried out using CHO-K1 cells transiently transfected with the human GPR119 receptor. CHO-K1 cells expressing GPR119 grown to mid-log phase prior to the test in culture media without antibiotics and supplemented with doxycycine (final concentration 200 ng/ml) were detached be gentle flushing with PBS-EDTA (5 mM EDTA), recovered by centrifugation and resuspended in Ham's F12 culture medium containing 10% FCS and no antibiotic. Cells were counted, centrifuged in a 50 ml Falcon tube and resuspended in KRH-IBMX (5 mM KCL, 1.25 mM MgSO4, 124 mM NaCl, 25 mM HEPES, 13.3 mM glucose, 1.25 mM KH2PO4, 1.45 mM CaCl2, 0.6 mg/ml BSA and […] Phenol red, pH 7.4) at a concentration of 6.25×10^5 cells/ml. Cells were then filled in 96 well plates (total vol 24 μl/well) and stimulated with agonists in serial dilution for 30 min. cAMP was then measured using a HTRF kit from CisBio International (cat no. 62AM2PEB). Determinations were made in duplicate.

human GPR119 receptor [2] = biological target: T1, human GPR119 receptor; test: Ligand-induced GPR119 activation, cAMP accumulation (3H-adenine) in transiently transfected COS-7 cells; format: cell-based; parameters: expressed in transfected cells; host or cells: COS-7
Experimental: Three different ligands were tested: (C) oleoylethanolamide (OEA), (A) 2-oleoylglycerol (2OG), and (D) oleic acid, by measurement of cAMP accumulation. Briefly, COS-7 cells were transiently transfected with the human GPR119 receptor (squares) or empty vector (negative control, triangle). The cells were seeded in plates one day after transfection, incubated for 24 hours with 2 μCi/ml of ^3H-adenine. At the day of the cAMP measurement, the cells incubated with the ligands for 25 minutes, lysed, and the cAMP purified using Dowex and alumina columns. The data represent sum-curves of three independent experiments (n=3), performed in duplicates. All dose-response curves were normalized to the efficacy of OEA in each experiment, and the data are shown as ligand-induced activation above basal receptor activity.
Briefly, COS-7 cells were transiently transfected with human GPR119 receptor (squares) or empty vector (negative control, triangle). The cells were seeded in plates one day after transfection, incubated for 24 hours with 2 μCi/ml of ^3H-adenine. At the day of the cAMP measurement, the cells were incubated with the ligand for 25 minutes, lysed, and the cAMP purified using Dowex and alumina columns. The data represent sum-curves of the 7 independent experiments, performed in duplicates.
GPR119 receptor signalling experiments were carried out using COS-7 cells transiently transfected with the human GPR119 receptor. The COS-7 cells were grown at 10% CO2 and 37° C. in Dulbecco's modified Eagle's medium with glutamax (Gibco, Cat. No 21885-025) adjusted with 10% fetal bovine serum (FBS), 180 u/ml penicillin and 45 ug/mL streptomycin (PenStrep). Transfection of the COS-7 cells was performed by the calcium phosphate precipitation method. The cells were seeded in 24 well plates (1.5×10^5 cells/well) one day after transfection, and were subsequently incubated for 24 hours with 2 μCi/ml of 3H-adenine in 0.5 ml growth medium per well. At the day of the cAMP measurement, the cells were washed twice in HBS buffer (25 mM Hepes, pH 7.2, supplemented with 0.75 mM NaH2PO4, 140 mM NaCl and 0.05% (w/v) bovine serum albumin), and 0.5 ml HBS buffer supplemented with 1 mM of the phosphodiesterase inhibitor IBMX (3-isobutyl-1-methylxanthine, Sigma chemicals Co., St. Louis, Mo., USA) was added together with increasing concentrations of the different compounds (2OG, 1OG, OEA, oleic acid or 2-PG). After 25 min incubation at 37° C., the cells were placed on ice, the medium was removed, and the cells were lysed in 1 ml of 5% (w/v) trichloroacetic acid, supplemented with 0.1 mM cAMP and 0.1 mM ATP for 30 min. The lysate mixtures were loaded onto Dowex columns (Bio-Rad, Hercules, Calif., USA), which were washed with 2 ml of water and placed onto the top of alumina columns (Sigma) and washed again with 10 ml of water. The alumina columns were eluted with 6 ml of 0.1 M imidazole into 15 ml scintillation fluid (Highsafe III). Columns were re-used up to 15 times. Dowex columns were regenerated by adding 10 ml of 2 N HCl followed by 10 ml of water; the alumina columns were regenerated by adding 2 ml of 1 M imidazole, 10 ml of 0.1 M imidazole, and finally 5 ml of water. Determinations were made in duplicate.

[3] = experiment 1, read-out: EC-values for activation of GPR119, CHO-exp-1
[4] = experiment 2, read-out: EC-values for activation of GPR119, CHO-exp-2
[5] = COS-7 cells, cAMP formation, n = 3, read-out: EC-values for activation of GPR119, COS-cells (n = 3)
[6] = transiently transfected COS-7 cells, Table 2, read-out: EC50 for activation of GPR119
[7] = experiment 3, read-out: EC-values for activation of GPR119, CHO-exp-3

Row | cAMP formation / GPR119 activation in words (human GPR119 receptor [1]) | EC50 (human GPR119 receptor [1]; [3]) | EC50 (human GPR119 receptor [1]; [4]) | EC50 (human GPR119 receptor [2]; [5]) | GPR119 agonism (efficacy normalized to OEA) (human GPR119 receptor [2]; cAMP formation, COS-7 cells (also CHO-K1)) | EC50 (human GPR119 receptor [2]; [6]) | EC50 (human GPR119 receptor [1]; [7]) | SMILES | plasma cholecystokinin levels (tGLP-1 release; comparison between groups, data not shown) | plasma tGLP-1 levels during the first 25 minutes (tGLP-1 release; fasted volunteers) | incremental area under the curve (iAUC) of tGLP-1 for the first 25 min (tGLP-1 release; healthy male volunteers, duodenal tube, 2 g 2OG or 1.54 g oleic acid in 50 ml glycerol + 5 ml ethanol, mean±SEM) | plasma levels of glucose (tGLP-1 release; increase after 25 min in all three groups, comparison between groups, data not shown) | insulin or c-peptide levels (tGLP-1 release; serum, fasted volunteers, data not shown)
1 | increase cAMP formation | 1550 nM | 1120 nM | 2.8 µM | full agonist | 4.2 µM |  | CCCCCCCC/C=C\CCCCCCCC(=O)OC(CO)CO [2-Oleoylglycerol, 2-oleoylglycerol] | no difference | significant increased levels of tGLP-1 | 0.07±0.02 nM×25 min | no difference between groups | no effect
2 | activator of GPR119 |  |  |  |  | > 30 µM |  | CCCCCCCCCCCCCCCC(=O)OC(CO)CO [2-palmitolyglycerol (2PG), 2-palmitoylglycerol] |  |  |  |  | 
3 |  | 1430 nM | 4650 nM | 1.4 µM |  |  | 1670 nM | CCCCCCCC/C=C\CCCCCCCC(=O)NCCO [Oleoylethanolamide, oleoylethanolamide, reference compound] |  |  |  |  | 
4 |  |  |  | 32.6 µM |  | > 30 µM | > 30000 nM | CCCCCCCC/C=C\CCCCCCCC(=O)O [oleic acid, reference compound] |  | did not increase plasma levels of GLP-1 |  |  | 

Row | SMILES | cAMP formation / GPR119 activation in words (human GPR119 receptor [1]) | EC50 (human GPR119 receptor [1]; [3]) | EC50 (human GPR119 receptor [1]; [4]) | EC50 (human GPR119 receptor [2]; [5]) | GPR119 agonism (efficacy normalized to OEA) (human GPR119 receptor [2]; cAMP formation, COS-7 cells (also CHO-K1)) | EC50 (human GPR119 receptor [2]; [6]) | EC50 (human GPR119 receptor [1]; [7]) | plasma cholecystokinin levels (tGLP-1 release; comparison between groups, data not shown) | plasma tGLP-1 levels during the first 25 minutes (tGLP-1 release; fasted volunteers) | incremental area under the curve (iAUC) of tGLP-1 for the first 25 min (tGLP-1 release; healthy male volunteers, duodenal tube, 2 g 2OG or 1.54 g oleic acid in 50 ml glycerol + 5 ml ethanol, mean±SEM) | plasma levels of glucose (tGLP-1 release; increase after 25 min in all three groups, comparison between groups, data not shown) | insulin or c-peptide levels (tGLP-1 release; serum, fasted volunteers, data not shown)
5 | CCCCCCCC/C=C\CCCCCCCCOC(CO)CO [2OG-ether] |  |  |  |  |  | 7.9 µM |  |  |  |  |  | 
